Source: the supplement of paper PMC10627819

How the values were obtained:
Conditions in all cases: main component drawn
S. aureus Newman [1] = experiment: fitness (endpoint OD595 vs no drug) (fraction); higher = more growth
How it was run: (§1)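 Fitness is computed from the optical density at which cultures reach stationary phase, divided by the robust mean of no-drug control wells. Any value above 1 is set to 1. Cultures started at OD595 0.01 in 384-well plates with TSB, LB Lennox or CY at 37 °C, and OD595 was read every 30 min for 14 h against a first-reading background.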

B. subtilis 168 [2] = experiment: as above
How it was run: as §1

S. aureus Newman [3] = experiment: Bliss interaction score (quartile over a dose matrix) (fitness difference); higher = more antagonism (negative = synergy)
How it was run: (§2)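 Quartiles summarise the Bliss score over technical, biological and donor/recipient replicates, where the score is observed minus expected fitness under a product model. Expected fitness uses single-drug values inferred from combination data. Fitness is OD595 at entry into stationary phase over the plate's robust no-drug mean, capped at 1.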

B. subtilis 168 [4] = experiment: as above
How it was run: as §2

S. pneumoniae D39V = experiment: as above
How it was run: as §2

S. aureus DSM 20231 = experiment: as above
How it was run: as §2
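Throughout, for Bliss interaction score (quartile over a dose matrix): first quartile when negative (synergy) and third quartile when positive (antagonism).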

CC[C@H](C)[C@H](N)C1=N[C@H](C(=O)N[C@@H](CC(C)C)C(=O)N[C@H](CCC(=O)O)C(=O)N[C@H](C(=O)N[C@H]2CCCCNC(=O)[C@H](CC(N)=O)NC(=O)[C@@H](CC(=O)O)NC(=O)[C@H](Cc3cnc[nH]3)NC(=O)[C@@H](Cc3ccccc3)NC(=O)[C@H]([C@@H](C)CC)NC(=O)[C@@H](CCCN)NC2=O)[C@@H](C)CC)CS1 [Bacitracin] + Cc1cc(NS(=O)(=O)c2ccc(N)cc2)no1 [Sulfamethoxazol]
fitness
Conditions | partner 1 µg/mL | partner 2 µg/mL | partner 4 µg/mL
B. subtilis 168 [2], first compound 37.5 µg/mL | 0.856 | 0.855 | 0.941
B. subtilis 168 [2], first compound 75 µg/mL | 0.832 | 0.851 | 0.852
S. aureus Newman [1], first compound 18.75 µg/mL | 0.775 | 0.76 | 0.819
S. aureus Newman [1], first compound 75 µg/mL | 0.0141 | 0.009 | 0.0028

fitness, one replicate
Conditions | first compound 18.75 µg/mL | first compound 37.5 µg/mL | first compound 75 µg/mL | first compound 150 µg/mL
B. subtilis 168 [2], partner 0.5 µg/mL | – | 0.947 | 0.998 | ≥ 1
S. aureus Newman [1], partner 8 µg/mL | 0.729 | 0.454 | 0.0253 | –

Conditions | Bliss interaction score
B. subtilis 168 [4] | 0.0966
S. aureus DSM 20231 | -0.0266
S. aureus Newman [3] | 0.104
S. pneumoniae D39V | 0.0767

CC[C@H](C)[C@H](N)C1=N[C@H](C(=O)N[C@@H](CC(C)C)C(=O)N[C@H](CCC(=O)O)C(=O)N[C@H](C(=O)N[C@H]2CCCCNC(=O)[C@H](CC(N)=O)NC(=O)[C@@H](CC(=O)O)NC(=O)[C@H](Cc3cnc[nH]3)NC(=O)[C@@H](Cc3ccccc3)NC(=O)[C@H]([C@@H](C)CC)NC(=O)[C@@H](CCCN)NC2=O)[C@@H](C)CC)CS1 [Bacitracin] + O=C(O[C@@H]1Cc2c(O)cc(O)cc2O[C@@H]1c1cc(O)c(O)c(O)c1)c1cc(O)c(O)c(O)c1 [EGCG]
fitness
Conditions | first compound 18.75 µg/mL | first compound 37.5 µg/mL | first compound 75 µg/mL | first compound 150 µg/mL
B. subtilis 168 [2], partner 6.25 µg/mL | – | 0.876 | 0.885 | 0.827
B. subtilis 168 [2], partner 12.5 µg/mL | – | – | – | 0.562
S. aureus Newman [1], partner 12.5 µg/mL | 0.73 | 0.43 | 0.0108 | –
S. aureus Newman [1], partner 25 µg/mL | 0.632 | 0.283 | 0.0073 | –
S. aureus Newman [1], partner 50 µg/mL | 0.444 | 0.192 | 0.0184 | –

Conditions | Bliss interaction score
B. subtilis 168 [4] | 0.0767
S. aureus DSM 20231 | -0.0223
S. aureus Newman [3] | 0.124
S. pneumoniae D39V | -0.0707

CC[C@H](C)[C@H](N)C1=N[C@H](C(=O)N[C@@H](CC(C)C)C(=O)N[C@H](CCC(=O)O)C(=O)N[C@H](C(=O)N[C@H]2CCCCNC(=O)[C@H](CC(N)=O)NC(=O)[C@@H](CC(=O)O)NC(=O)[C@H](Cc3cnc[nH]3)NC(=O)[C@@H](Cc3ccccc3)NC(=O)[C@H]([C@@H](C)CC)NC(=O)[C@@H](CCCN)NC2=O)[C@@H](C)CC)CS1 [Bacitracin] + CCC[C@@H]1C[C@@H](C(=O)N[C@@H]([C@H]2O[C@H](SC)[C@H](O)[C@@H](O)[C@H]2O)[C@H](C)Cl)N(C)C1 [Clindamycin]
fitness
Conditions | first compound 18.75 µg/mL | first compound 37.5 µg/mL | first compound 75 µg/mL | first compound 150 µg/mL
B. subtilis 168 [2], partner 0.0625 µg/mL | – | 0.649 | 0.568 | –
B. subtilis 168 [2], partner 0.125 µg/mL | – | 0.42 | 0.364 | 0.108
B. subtilis 168 [2], partner 0.25 µg/mL | – | 0.363 | 0.241 | 0.0433
S. aureus Newman [1], partner 0.0312 µg/mL | – | – | 0.0388 | –
S. aureus Newman [1], partner 0.0625 µg/mL | – | 0.067 | 0.0139 | –
S. aureus Newman [1], partner 0.125 µg/mL | 0.0166 | 0.0173 | 0.0265 | –

fitness, B. subtilis 168 [2], one replicate
Conditions | first compound 37.5 µg/mL | first compound 75 µg/mL | first compound 150 µg/mL
partner 0.0039 µg/mL | 0.995 | ≥ 1 | ≥ 1
partner 0.0078 µg/mL | 0.878 | 0.891 | 0.845
partner 0.0156 µg/mL | 0.831 | 0.861 | 0.871

Conditions | Bliss interaction score
B. subtilis 168 [4] | -0.0851
S. aureus DSM 20231 | 0.0155
S. aureus Newman [3] | -0.052
S. pneumoniae D39V | -0.071

CC[C@H](C)[C@H](N)C1=N[C@H](C(=O)N[C@@H](CC(C)C)C(=O)N[C@H](CCC(=O)O)C(=O)N[C@H](C(=O)N[C@H]2CCCCNC(=O)[C@H](CC(N)=O)NC(=O)[C@@H](CC(=O)O)NC(=O)[C@H](Cc3cnc[nH]3)NC(=O)[C@@H](Cc3ccccc3)NC(=O)[C@H]([C@@H](C)CC)NC(=O)[C@@H](CCCN)NC2=O)[C@@H](C)CC)CS1 [Bacitracin] + CC1=C\[C@@H](O)CC(=O)Cc2nc(co2)C(=O)N2CCC=C2C(=O)O[C@H](C(C)C)[C@H](C)/C=C/C(=O)NC\C=C\1 [Virginiamycin M1]
fitness
Conditions | partner 0.0625 µg/mL | partner 0.125 µg/mL | partner 0.25 µg/mL
B. subtilis 168 [2], first compound 37.5 µg/mL | 0.986 | 0.926 | 0.927
B. subtilis 168 [2], first compound 75 µg/mL | 0.994 | 0.861 | 0.951
S. aureus Newman [1], first compound 18.75 µg/mL | 0.698 | 0.698 | 0.705
S. aureus Newman [1], first compound 37.5 µg/mL | 0.146 | 0.215 | 0.215
S. aureus Newman [1], first compound 75 µg/mL | 0.037 | 0.0313 | 0.0704

fitness, S. aureus Newman [1], one replicate
Conditions | first compound 18.75 µg/mL | first compound 37.5 µg/mL | first compound 75 µg/mL
partner 0.5 µg/mL | 0.693 | 0.519 | 0.0148
partner 1 µg/mL | 0.72 | 0.368 | 0.0101
partner 2 µg/mL | 0.594 | 0.127 | 0.0147

Conditions | Bliss interaction score
B. subtilis 168 [4] | 0.0905
S. aureus DSM 20231 | -0.0463
S. aureus Newman [3] | 0.0498
S. pneumoniae D39V | 0.094

CC[C@H](C)[C@H](N)C1=N[C@H](C(=O)N[C@@H](CC(C)C)C(=O)N[C@H](CCC(=O)O)C(=O)N[C@H](C(=O)N[C@H]2CCCCNC(=O)[C@H](CC(N)=O)NC(=O)[C@@H](CC(=O)O)NC(=O)[C@H](Cc3cnc[nH]3)NC(=O)[C@@H](Cc3ccccc3)NC(=O)[C@H]([C@@H](C)CC)NC(=O)[C@@H](CCCN)NC2=O)[C@@H](C)CC)CS1 [Bacitracin] + CN[C@@H]1[C@H](O)[C@H](NC)[C@H]2O[C@@]3(O)C(=O)C[C@@H](C)O[C@H]3O[C@@H]2[C@H]1O [Spectinomycin]
fitness
Conditions | partner 2 µg/mL | partner 4 µg/mL | partner 8 µg/mL | partner 16 µg/mL
B. subtilis 168 [2], first compound 37.5 µg/mL | 0.903 | 0.933 | 0.863 | –
B. subtilis 168 [2], first compound 75 µg/mL | 0.889 | 0.911 | 0.829 | –
S. aureus Newman [1], first compound 18.75 µg/mL | – | 0.652 | – | –
S. aureus Newman [1], first compound 75 µg/mL | – | 0.0188 | 0.0181 | 0

fitness, S. aureus Newman [1], one replicate
Conditions | first compound 18.75 µg/mL | first compound 37.5 µg/mL | first compound 75 µg/mL
partner 32 µg/mL | 0.0067 | 0.0186 | 0
partner 64 µg/mL | 0.0327 | 0.0167 | 0.003

Conditions | Bliss interaction score
B. subtilis 168 [4] | 0.0682
S. aureus DSM 20231 | 0.0546
S. aureus Newman [3] | -0.165
S. pneumoniae D39V | -0.186

CC[C@H](C)[C@H](N)C1=N[C@H](C(=O)N[C@@H](CC(C)C)C(=O)N[C@H](CCC(=O)O)C(=O)N[C@H](C(=O)N[C@H]2CCCCNC(=O)[C@H](CC(N)=O)NC(=O)[C@@H](CC(=O)O)NC(=O)[C@H](Cc3cnc[nH]3)NC(=O)[C@@H](Cc3ccccc3)NC(=O)[C@H]([C@@H](C)CC)NC(=O)[C@@H](CCCN)NC2=O)[C@@H](C)CC)CS1 [Bacitracin] + CCN(CC)CCOC(=O)c1ccc(N)cc1 [Procaine]
fitness
Conditions | partner 85.5 µg/mL | partner 171 µg/mL | partner 342 µg/mL
B. subtilis 168 [2], first compound 37.5 µg/mL | 0.88 | 0.939 | 0.874
B. subtilis 168 [2], first compound 75 µg/mL | 0.899 | 0.879 | 0.871
B. subtilis 168 [2], first compound 150 µg/mL | 0.753 | 0.752 | 0.619
S. aureus Newman [1], first compound 18.75 µg/mL | 0.792 | 0.738 | 0.749
S. aureus Newman [1], first compound 75 µg/mL | 0.0486 | 0.0139 | 0.0176

Conditions | Bliss interaction score
B. subtilis 168 [4] | 0.116
S. aureus DSM 20231 | 0.0191
S. aureus Newman [3] | 0.0965
S. pneumoniae D39V | -0.0511
